Molecular target: T1, MyD88^TIR (Homo sapiens, UniProt Q99836)
T1 construct: MyD88 (residues 148–296); 6xHis; made in house; host or cells: E. coli BL21 (DE3)
Assay: T‐Surf phage library (P8 and P3) selection against MyD88^TIR, four rounds, NGS read counts
Type: binding
Conditions: for P8_MyD88 Rank (after) / P8_MyD88 Rank (before): P8 library; for P3_MyD88 Rank (after) / P3_MyD88 Rank (before): P3 library; for Population: 4th round of selection against MyD88 TIR, share of NGS reads
Protocol: T‐Surf libraries were screened against the immobilized TIR domains of two major human TLR adaptor proteins, MAL^TIR and MyD88^TIR, allowing cross‐species selection of TIR‐binding motifs with 190 946 TIR‐derived peptides in a single binding assay (Scheme 1). Enriched phage pools from the fourth round of selection were analyzed using NGS after barcoding the peptide‐coding regions of the phage pools.
Phage display screening was performed by coating two wells of a 96‐well plate (Maxisorp, Thermo Fisher Scientific) with 100 µL of 5 µg mL^−1 TIR domains overnight; then, the coated wells were blocked with 200 µL of blocking buffer (0.2% BSA in PBS) and set aside for 1 h at 4 °C with gentle shaking. Next, 100 µL of the phage library was added to the wells and incubated for 1 h at room temperature (RT; 20 – 22 °C) with gentle shaking. The plate was washed four times with PBS containing 0.5% Tween‐20; the bound phages were eluted by adding 100 µL of 100 mM HCl to each well. The elute was neutralized with 10 µL of 1.0 M Tris‐HCl (pH 11.0). E. coli TG1 cells were grown to the log phase (A600 = ≈0.6), and 1 mL of the culture was incubated with 100 µL of the eluted phages for 30 min at 37 °C, with shaking at 200 rpm. Next, 1 µL of M13KO7 helper phages was added, followed by incubation for 45 min at 37 °C, with shaking. Subsequently, the cells were transferred to 25 mL of 2× yeast extract tryptone/carbenicillin/kanamycin medium and incubated overnight at 37 °C with shaking at 200 rpm. The amplified phages were precipitated with 20% PEG‐8000/2.5 M NaCl to be used for the next round of selection.
The naïve T‐Surf libraries in P8 and P3 and the enriched phage pools after four rounds were barcoded for NGS as previously described.^[ [59] ^] Briefly, 5 µL of the phage pool was used as a template for 20 cycles of a 50 µL PCR reaction using […] each of forward and reverse barcoded primers and PrimeSTAR Max DNA Polymerase. The PCR products were purified using Expin Gel SV (GeneAll). The NGS samples were quantified using qPCR, following the qPCR Quantification Protocol Guide (KAPA Library Quantification kits for Illumina Sequencing Platform), and qualified using the TapeStation High Sensitivity D1000 ScreenTape (Agilent Technologies). The indexed libraries were further sequenced by Macrogen (Seoul, Republic of Korea) using the NovaSeq platform (Illumina) with 100 bp paired‐end reads. The reads were demultiplexed by barcodes and filtered for an average Phred quality score of at least 30, followed by trimming the flanking consensus sequences using Cutadapt (version 2.3). Peptide sequence populations were analyzed according to the read counts.

[1] = selection against MyD88 TIR, rank by count after grouping
[2] = selection against MyD88 TIR, rank by count before grouping
[3] = P8_MyD88: rank by NGS read count after grouping
[4] = P8_MyD88: rank by NGS read count before grouping
[5] = selection against MyD88, rank after grouping
[6] = selection against MyD88, rank before grouping
[7] = 4R selection against MyD88, rank after grouping
[8] = 4R selection against MyD88, rank before grouping
[9] = selection against MyD88, rank by count after grouping
[10] = selection against MyD88, rank by count before grouping
[11] = P8_MyD88 pool: P8 T-Surf phage library
[12] = P3_MyD88 pool: P3 T-Surf phage library
[13] = P8_MyD88: rank by count after grouping
[14] = P8_MyD88: rank by count before grouping
[15] = P3_MyD88: rank by count after grouping
[16] = P3_MyD88: rank by count before grouping

T1 sequence (Q99836 148-296): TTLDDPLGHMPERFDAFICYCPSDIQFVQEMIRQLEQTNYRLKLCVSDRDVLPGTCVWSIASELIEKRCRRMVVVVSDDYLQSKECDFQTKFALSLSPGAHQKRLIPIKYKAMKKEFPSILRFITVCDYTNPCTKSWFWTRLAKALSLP

LGYHWRDWEYFVGLED
P8_MyD88 Rank (after) [1]: 280
P8_MyD88 Rank (before) [2]: 3302

PSEVRNRPAAWRKRL
P3_MyD88 Rank (after) [1]: 195
P3_MyD88 Rank (before) [2]: 1127

IDDDHLTYLVRLLYSLHVTE
Rank (after) [3]: 895
Rank (before) [4]: 3629

DRVWDYLLPNLEGQAG
P8_MyD88 Rank (after) [5]: 545
P8_MyD88 Rank (before) [6]: 3073

DPQDMEWFYERLVSLIL
P8_MyD88 Rank (after) [7]: 602
P8_MyD88 Rank (before) [8]: 2975

YLLAGDFWIFFTLLTA
P8_MyD88 Rank (after) [9]: 738
P8_MyD88 Rank (before) [10]: 1964

DPQDLDWLYERLVSLF
Population [11]: 0.00617%

YAFTGHLHATL
Population [12]: 0.00291%

QLIQQWIELHLHQLHL
P3_MyD88 Rank (after) [5]: 499
P3_MyD88 Rank (before) [6]: 2880

PQVLGWFYERLVSLIL
Rank (after) [13]: 447
Rank (before) [14]: 3414

WSLDELLKILYAKETI
P8_MyD88 Rank (after) [5]: 508
P8_MyD88 Rank (before) [6]: 1386

DIVAYVMQKLMKHQVF
Rank (after) [13]: 154
Rank (before) [14]: 169
Population [11]: 0.00848%

YPQDLEWLYERLVSPV
Rank (after) [3]: 945
Rank (before) [4]: 2099

CARDELLQILHARELF
Rank (after) [3]: 876
Rank (before) [4]: 1349

YASSSWALLELSKIFEAM
Rank (after) [3]: 994
Rank (before) [4]: 1899

YAFTGHLPRDLVLRGG
P3_MyD88 Rank (after) [5]: 491
P3_MyD88 Rank (before) [6]: 1493

LGYHWVVWEYFVGIED
P8_MyD88 Rank (after) [7]: 594
P8_MyD88 Rank (before) [8]: 3231

SSFREGLWRLQELSKT
Rank (after) [15]: 158
Rank (before) [16]: 3187

YASYDDNDYYWVTHVLLRH
Rank (after) [3]: 997
Rank (before) [4]: 1799

VANILGYHWMDWVYFV
P8_MyD88 Rank (after) [5]: 563
P8_MyD88 Rank (before) [6]: 2191

WALEELRLIMELHSV
P8_MyD88 Rank (after) [5]: 504
P8_MyD88 Rank (before) [6]: 1525

LGYQWNEWEYLVGIEE
P8_MyD88 Rank (after) [5]: 538
P8_MyD88 Rank (before) [6]: 3327

PEKIMAAKMRLSITL
P3_MyD88 Rank (after) [1]: 274
P3_MyD88 Rank (before) [2]: 2702

LKWGDPWFWDRLRFA
Population [12]: 0.00437%

SENYATSPWALDELVRIVEA
P3_MyD88 Rank (after) [1]: 258
P3_MyD88 Rank (before) [2]: 1170

NQWRNELTPAANLSGW
P3_MyD88 Rank (after) [9]: 698
P3_MyD88 Rank (before) [10]: 3527

YTALTNSGFHTFRVNV
P3_MyD88 Rank (after) [7]: 659
P3_MyD88 Rank (before) [8]: 1668

DPQERGCQYQRLVGML
Rank (after) [3]: 902
Rank (before) [4]: 3019

WDFASNMAQVWERLYY
Rank (after) [3]: 890
Rank (before) [4]: 1596

NERGHVWSSKANSLVG
P3_MyD88 Rank (after) [7]: 615
P3_MyD88 Rank (before) [8]: 3454

YASYDDNDYYWVTHVLLRPM
Rank (after) [13]: 139
Rank (before) [14]: 255

SLRQNLVSNLLEEFKR
Rank (after) [15]: 480
Rank (before) [16]: 3075

FLSYLALEKRFSPIGQ
P3_MyD88 Rank (after) [5]: 515
P3_MyD88 Rank (before) [6]: 1343

LVAMKLPRACLKRLK
P3_MyD88 Rank (after) [5]: 505
P3_MyD88 Rank (before) [6]: 2318

YATSSWALNELVYLIM
Rank (after) [13]: 146
Rank (before) [14]: 162
Population [11]: 0.00886%

AWTDDPVGQLFFWESL
Rank (after) [13]: 168
Rank (before) [14]: 189
Population [11]: 0.00655%

LTDVANILGYHWIDWE
Rank (after) [13]: 104
Rank (before) [14]: 110
Population [11]: 0.02%

LQNQWKLALTNSGFHTFRDND
P3_MyD88 Rank (after) [7]: 585
P3_MyD88 Rank (before) [8]: 2346

YLLLRVLQTIFLRRTD
Rank (after) [3]: 898
Rank (before) [4]: 1967

YTALTNRAFIPFVIM
P3_MyD88 Rank (after) [7]: 590
P3_MyD88 Rank (before) [8]: 1658

DPQELDWFYELLVSPF
P8_MyD88 Rank (after) [9]: 689
P8_MyD88 Rank (before) [10]: 2982

Reference: publication PMC11714206, “Massively Parallel Screening of Toll/Interleukin‐1 Receptor (TIR)‐Derived Peptides Reveals Multiple Toll‐Like Receptors (TLRs)‐Targeting Immunomodulatory Peptides” (Advanced Science, 2024)
